Source: ChEMBL document CHEMBL1201862, “PubChem BioAssay data set” (2004)
Activity calls are given as the source filed them.

How the values were obtained:
Protein skinhead-1 = target: T1, Protein skinhead-1 (Caenorhabditis elegans, UniProt P34707); assay type: functional
T1 sequence (P34707 whole entry): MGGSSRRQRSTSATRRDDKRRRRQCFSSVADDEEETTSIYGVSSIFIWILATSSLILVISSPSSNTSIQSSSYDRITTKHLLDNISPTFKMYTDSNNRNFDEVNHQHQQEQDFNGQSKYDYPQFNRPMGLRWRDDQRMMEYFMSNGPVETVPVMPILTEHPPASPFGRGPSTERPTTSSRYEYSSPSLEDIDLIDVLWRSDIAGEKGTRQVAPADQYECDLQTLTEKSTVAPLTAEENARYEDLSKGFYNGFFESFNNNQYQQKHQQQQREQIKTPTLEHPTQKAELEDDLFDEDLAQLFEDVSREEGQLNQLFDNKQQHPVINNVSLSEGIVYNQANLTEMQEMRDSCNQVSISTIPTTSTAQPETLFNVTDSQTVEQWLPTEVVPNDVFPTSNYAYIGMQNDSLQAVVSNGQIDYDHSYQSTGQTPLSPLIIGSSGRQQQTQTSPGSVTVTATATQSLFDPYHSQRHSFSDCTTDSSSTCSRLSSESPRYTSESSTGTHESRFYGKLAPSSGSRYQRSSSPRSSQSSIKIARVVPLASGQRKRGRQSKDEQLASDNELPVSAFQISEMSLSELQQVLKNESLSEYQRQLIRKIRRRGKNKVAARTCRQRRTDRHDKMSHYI

[1] = target: T2, Sentrin-specific protease 8 (Homo sapiens, UniProt Q96LD8); assay type: functional;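 further: luminescence read-out of SENP8 inhibition, dose-response confirmation following an ultra-high-throughput screen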
T2 sequence (Q96LD8 whole entry): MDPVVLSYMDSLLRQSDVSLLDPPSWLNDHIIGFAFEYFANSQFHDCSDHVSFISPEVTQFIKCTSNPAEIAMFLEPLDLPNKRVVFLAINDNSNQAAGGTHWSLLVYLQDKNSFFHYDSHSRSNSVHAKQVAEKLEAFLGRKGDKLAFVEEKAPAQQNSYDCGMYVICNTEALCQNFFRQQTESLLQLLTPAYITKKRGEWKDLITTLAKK

[2] = target: T3, Sentrin-specific protease 7 (Homo sapiens, UniProt Q9BQF6); assay type: functional;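 further: Luminescence-based dose-response confirmation of ultra-high-throughput screening hits, measuring inhibition of SENP7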
T3 sequence (Q9BQF6 whole entry): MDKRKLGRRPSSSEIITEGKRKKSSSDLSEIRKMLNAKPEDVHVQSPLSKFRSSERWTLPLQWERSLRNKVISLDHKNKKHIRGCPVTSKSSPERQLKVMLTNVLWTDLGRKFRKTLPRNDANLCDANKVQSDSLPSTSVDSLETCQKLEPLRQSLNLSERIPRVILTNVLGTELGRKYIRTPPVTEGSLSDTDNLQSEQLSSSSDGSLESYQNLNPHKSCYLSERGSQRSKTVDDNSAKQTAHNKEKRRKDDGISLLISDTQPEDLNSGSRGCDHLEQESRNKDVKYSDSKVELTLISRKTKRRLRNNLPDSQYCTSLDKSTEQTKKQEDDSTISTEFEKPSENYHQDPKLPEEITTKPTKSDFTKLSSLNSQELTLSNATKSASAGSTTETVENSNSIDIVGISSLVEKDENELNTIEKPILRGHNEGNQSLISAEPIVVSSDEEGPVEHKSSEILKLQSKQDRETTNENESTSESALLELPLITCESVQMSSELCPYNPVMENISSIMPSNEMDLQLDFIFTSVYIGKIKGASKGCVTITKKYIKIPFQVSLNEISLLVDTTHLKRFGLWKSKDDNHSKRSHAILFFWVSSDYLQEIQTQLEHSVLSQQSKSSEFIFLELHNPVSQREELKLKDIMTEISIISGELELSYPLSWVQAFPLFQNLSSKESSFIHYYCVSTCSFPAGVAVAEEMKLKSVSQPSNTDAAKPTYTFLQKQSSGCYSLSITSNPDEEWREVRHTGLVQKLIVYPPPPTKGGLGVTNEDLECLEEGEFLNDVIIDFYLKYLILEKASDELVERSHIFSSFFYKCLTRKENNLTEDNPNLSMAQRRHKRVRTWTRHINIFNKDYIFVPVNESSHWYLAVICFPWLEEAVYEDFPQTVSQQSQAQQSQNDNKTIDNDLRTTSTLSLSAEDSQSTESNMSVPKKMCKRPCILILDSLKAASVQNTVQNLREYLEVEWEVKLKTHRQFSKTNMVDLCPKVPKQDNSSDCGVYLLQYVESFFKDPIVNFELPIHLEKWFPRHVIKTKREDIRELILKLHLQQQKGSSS

[3] = target: T4, Sentrin-specific protease 6 (Homo sapiens, UniProt Q9GZR1); assay type: functional;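 further: Luminescence-based dose-response confirmatory assay of SENP6 inhibition, following up an ultra-high-throughput screen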
T4 sequence (Q9GZR1 whole entry): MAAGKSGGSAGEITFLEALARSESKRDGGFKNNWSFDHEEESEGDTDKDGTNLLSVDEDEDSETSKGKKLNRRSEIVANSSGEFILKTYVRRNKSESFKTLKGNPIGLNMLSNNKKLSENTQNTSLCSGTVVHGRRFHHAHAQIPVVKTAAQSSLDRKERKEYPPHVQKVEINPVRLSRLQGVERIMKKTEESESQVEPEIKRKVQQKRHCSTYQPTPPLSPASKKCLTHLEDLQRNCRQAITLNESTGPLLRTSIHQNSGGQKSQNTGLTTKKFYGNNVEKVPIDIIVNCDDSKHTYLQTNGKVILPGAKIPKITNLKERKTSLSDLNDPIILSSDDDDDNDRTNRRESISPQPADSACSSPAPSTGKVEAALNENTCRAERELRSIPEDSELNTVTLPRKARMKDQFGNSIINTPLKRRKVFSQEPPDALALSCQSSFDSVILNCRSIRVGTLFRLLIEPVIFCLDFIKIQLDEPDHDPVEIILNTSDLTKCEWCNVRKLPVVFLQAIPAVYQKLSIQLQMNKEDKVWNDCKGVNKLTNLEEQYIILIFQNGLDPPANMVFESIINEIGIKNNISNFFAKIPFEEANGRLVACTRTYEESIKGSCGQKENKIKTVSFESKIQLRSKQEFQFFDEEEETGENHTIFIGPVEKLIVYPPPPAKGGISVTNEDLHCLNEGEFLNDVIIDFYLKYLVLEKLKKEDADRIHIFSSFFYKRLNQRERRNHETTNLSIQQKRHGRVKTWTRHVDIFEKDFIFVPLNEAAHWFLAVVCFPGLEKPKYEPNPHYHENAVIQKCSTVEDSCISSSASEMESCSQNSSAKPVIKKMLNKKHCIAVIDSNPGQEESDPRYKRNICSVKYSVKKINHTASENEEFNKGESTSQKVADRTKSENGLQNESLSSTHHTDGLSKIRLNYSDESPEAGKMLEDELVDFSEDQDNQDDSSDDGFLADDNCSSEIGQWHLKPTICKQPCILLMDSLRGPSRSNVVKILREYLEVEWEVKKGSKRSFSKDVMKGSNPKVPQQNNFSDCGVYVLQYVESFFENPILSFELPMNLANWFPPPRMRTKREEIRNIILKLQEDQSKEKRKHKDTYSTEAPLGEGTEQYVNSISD

cells = assay type: functional
Caspase-3 = target: T5, Caspase-3 (Homo sapiens, UniProt P42574); assay type: functional;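 further: Dose-response selectivity test against caspase-3 for candidate inhibitors of sentrin-specific proteases (SENPs)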
T5 sequence (P42574 whole entry): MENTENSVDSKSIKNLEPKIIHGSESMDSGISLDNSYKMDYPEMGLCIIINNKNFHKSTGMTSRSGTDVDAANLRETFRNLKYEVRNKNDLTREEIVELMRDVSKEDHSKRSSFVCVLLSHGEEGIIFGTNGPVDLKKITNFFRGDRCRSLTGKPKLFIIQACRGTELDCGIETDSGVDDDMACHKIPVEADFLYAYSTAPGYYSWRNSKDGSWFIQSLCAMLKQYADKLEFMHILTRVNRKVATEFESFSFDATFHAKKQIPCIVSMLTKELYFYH

[4] = blockade of melanocortin 4 receptor signaling – cell-based, plate reader, cherry pick, counter-screen for LGR2 antagonist project, dose response (AID 743444); assay type: functional;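 further: transfected HEK 293 cells stimulated with alpha-MSH peptide; potency of inhibitors of the alpha-MSH evoked signal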
Cytochrome P450 2D6 = Cytochrome P450 2D6 (Homo sapiens, UniProt P10635);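 further: CYP2D6 member of a cytochrome P450 panel assay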
[5] = toxicity toward HepG2 liver cells – cell-based, plate reader, cherry-pick, antagonist series, cytotoxicity control, dose response (AID 743416); assay type: functional
Cytochrome P450 2C9 = Cytochrome P450 2C9 (Homo sapiens, UniProt P11712)
[6] = blockers of bursicon-stimulated LGR2 cAMP reporter – cell-based, HEK293, CRE-luciferase reporter, cherry pick, set 2, dose response (AID 743343); assay type: functional;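 further: transfected cells were stimulated with diluted bursicon conditioned medium after compound addition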
[7] = target: T6, Ubiquitin-conjugating enzyme E2 N (Homo sapiens, UniProt P61088); assay type: functional;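 further: Dose-response confirmation in a TR-FRET assay detecting UBC13-driven polyubiquitin chain formation, inhibition measured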
T6 sequence (P61088 whole entry): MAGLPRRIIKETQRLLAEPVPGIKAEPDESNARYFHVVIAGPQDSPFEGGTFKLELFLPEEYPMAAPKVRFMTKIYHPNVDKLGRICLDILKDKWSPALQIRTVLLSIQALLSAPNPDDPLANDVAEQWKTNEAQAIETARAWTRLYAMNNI

Streptococcus = test: GAS UMAA2166 growth inhibition – luminescence, BacTiterGlo, counter-screen for streptokinase expression inhibitor project, dose response (AID 1915); assay type: functional, organism-based;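 further: potency for reduction of bacterial viability or growth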
[8] = tested on: Streptococcus sp. 'group A'; test: Streptococcus pyogenes SK(-)GAS viability under kanamycin – luminescence, BacTiterGlo, confirmation, counter-screen for streptokinase expression inhibitor project, dose response (AID 1900); assay type: functional, organism-based
Streptokinase A = target: T7, Streptokinase A (Streptococcus pyogenes serotype M1, UniProt P10520); test: viability-normalized secreted streptokinase activity reduction – plasminogen activation absorbance, OD405, dose response (AID 1914); assay type: functional, Streptococcus pyogenes M1 GAS;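 further: secreted streptokinase activity via plasminogen activation per viability signal from cell pellet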
T7 sequence (P10520 whole entry): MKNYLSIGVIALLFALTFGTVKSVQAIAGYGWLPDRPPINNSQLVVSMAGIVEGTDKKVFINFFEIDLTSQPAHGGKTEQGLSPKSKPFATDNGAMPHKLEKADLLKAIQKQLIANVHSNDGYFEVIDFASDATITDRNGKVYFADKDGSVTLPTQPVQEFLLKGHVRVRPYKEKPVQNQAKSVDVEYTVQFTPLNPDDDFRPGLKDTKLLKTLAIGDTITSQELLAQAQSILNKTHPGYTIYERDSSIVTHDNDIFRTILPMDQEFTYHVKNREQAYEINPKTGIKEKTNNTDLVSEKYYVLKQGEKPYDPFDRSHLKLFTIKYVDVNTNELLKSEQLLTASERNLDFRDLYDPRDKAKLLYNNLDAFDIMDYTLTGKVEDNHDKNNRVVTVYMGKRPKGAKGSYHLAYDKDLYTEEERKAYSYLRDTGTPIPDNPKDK

[9] = fluconazole-exposed Candida albicans growth modulators – fluorescence, retest, confirmation (AID 2467); assay type: functional, cell-based
[10] = NIH-3T3 fibroblast cytotoxicity, dose response, cytotoxicity control, cell-based, fluorescence, Alamar Blue, secondary assay (AID 2327); assay type: functional;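 further: NIH-3T3 mouse fibroblasts cultured with fluconazole at 8 µg/mL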
[11] = NIH3T3 cell viability loss – ATP luminescence, mouse fibroblasts, counter-screen, dose response (AID 2010); assay type: functional, cell-based;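 further: cells exposed to compound for about 90 hours before reading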
[12] = Trypanosoma cruzi growth suppression in host cells – NIH3T3 host cells, beta-gal luminescence, confirmation (AID 2044); assay type: functional, cell-based;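 further: intracellular parasites grown in NIH/3T3 mouse fibroblasts as host cells; luminescent beta-galactosidase reporter signal from transgenic T. cruzi replicating inside host cells; inhibitors lower the luminescence signal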

Sequence of Cytochrome P450 2D6 (P10635 whole entry): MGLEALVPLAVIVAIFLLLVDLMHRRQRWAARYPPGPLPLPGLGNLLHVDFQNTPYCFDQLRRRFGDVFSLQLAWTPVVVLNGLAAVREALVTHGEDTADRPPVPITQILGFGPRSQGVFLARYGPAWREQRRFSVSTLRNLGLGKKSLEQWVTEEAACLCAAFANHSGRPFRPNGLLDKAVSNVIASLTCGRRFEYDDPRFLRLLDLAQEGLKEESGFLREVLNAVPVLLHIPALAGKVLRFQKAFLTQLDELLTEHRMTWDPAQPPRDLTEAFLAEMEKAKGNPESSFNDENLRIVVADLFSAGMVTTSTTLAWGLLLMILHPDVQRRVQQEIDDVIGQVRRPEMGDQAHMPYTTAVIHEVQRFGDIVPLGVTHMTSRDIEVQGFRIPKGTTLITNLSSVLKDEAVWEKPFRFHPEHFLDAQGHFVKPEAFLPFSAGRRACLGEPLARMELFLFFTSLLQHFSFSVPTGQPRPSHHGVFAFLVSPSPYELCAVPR
Sequence of Cytochrome P450 2C9 (P11712 whole entry): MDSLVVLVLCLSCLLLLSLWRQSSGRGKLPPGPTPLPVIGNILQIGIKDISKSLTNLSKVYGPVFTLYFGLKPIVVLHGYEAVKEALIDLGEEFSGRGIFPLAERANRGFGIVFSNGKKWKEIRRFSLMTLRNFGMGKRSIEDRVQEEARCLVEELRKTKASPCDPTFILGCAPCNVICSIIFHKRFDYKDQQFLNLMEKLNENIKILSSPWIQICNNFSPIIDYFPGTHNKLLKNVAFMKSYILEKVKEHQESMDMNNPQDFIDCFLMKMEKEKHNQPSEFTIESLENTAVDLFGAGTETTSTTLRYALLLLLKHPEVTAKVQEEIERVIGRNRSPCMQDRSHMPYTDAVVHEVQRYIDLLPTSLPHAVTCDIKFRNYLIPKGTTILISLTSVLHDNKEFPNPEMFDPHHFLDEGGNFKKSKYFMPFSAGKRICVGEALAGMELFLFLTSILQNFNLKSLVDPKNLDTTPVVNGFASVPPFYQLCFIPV

Cc1ccc(CN2CCC(n3nccc3NC(=O)c3ccccc3C)CC2)o1
IC50 (Protein skinhead-1): > 100 µM (inactive)

COc1ccc(C(=O)COC(=O)c2ccccc2O)c(OC)c1
IC50 [1]: 53.1 µM (active) | IC50 [2]: 8.26 µM (active) | IC50 [3]: 13.8 µM (active) | IC50 (cells): 36.9 µM (active) | IC50 (Caspase-3): 27.6 µM (active)

COc1cccc(-c2cc(C(=O)Nc3cccc(O)c3)no2)c1
AC50 [4]: 8.73 µM (active) | AC50 (Cytochrome P450 2D6): 22.4 µM (inconclusive) | AC50 [5]: 42.3 µM (active) | AC50 (Cytochrome P450 2C9): inconclusive | AC50 [6]: 7.52 µM (active)

c1ccc(COc2ccc(OCCCN3CCCC3)cc2)cc1
AC50 [4]: 1.19 µM (active) | AC50 [5]: > 52 µM (inactive) | AC50 [6]: 0.751 µM (active)

Cc1nc(N)sc1C(=O)OCC(C)C
IC50 [7]: > 20 µM (inactive)

O=C1/C(=C/c2cccs2)CCC/C1=C\c1cccs1
EC50 (Streptococcus): > 150 µM (not active) | EC50 [8]: > 150 µM (not active) | EC50 (Streptokinase A): 68.5 µM (active) | IC50 (Protein skinhead-1): 95.2 µM (inactive)

Cc1ccc(NC(=O)c2cc(-c3ccco3)on2)cc1C
IC50 (Protein skinhead-1): > 100 µM (inactive)

C=CCn1c(SCc2ccc(C(=O)Nc3ccccc3)cc2)nnc1-c1ccccc1
EC50 [9]: > 38 µM (not active) | AC50 (Cytochrome P450 2D6): 22.4 µM (inconclusive) | EC50 [10]: > 160 µM (inactive)

Cc1ccc(C(C(=O)NCC2CCCO2)N(C(=O)c2snc(C(N)=O)c2N)c2ccc(C(C)C)cc2)o1 (centres undefined)
IC50 [7]: > 20 µM (inactive)

COc1ccc(-n2nc(C(=O)NCc3cc(OC)ccc3OC)c3c4ccccc4n(C)c3c2=O)cc1
IC50 [7]: > 20 µM (inactive)

N#Cc1cnn(-c2nc(O)c3c4c(sc3n2)CCCC4)c1N
EC50 [9]: 0.131 µM (active) | EC50 [10]: 16.9 µM (active)

COC(=O)C1CCN(C(=O)CN(C)Cc2ccc(C(C)(C)C)cc2)CC1
EC50 [9]: 1.43 µM (inconclusive) | EC50 [11]: > 60 µM (not active) | EC50 [10]: > 150 µM (inactive) | EC50 [12]: 0.513 µM (active)

COc1cccc(NC(=O)CN(C)C(=O)c2cccnc2Nc2cccc(C(F)(F)F)c2)c1
IC50 [7]: > 20 µM (inactive)

c1ccc2c(C[C@@H]3CNCCN3CCCCC3CCCCC3)cccc2c1
IC50 [7]: > 20 µM (inactive)

Clc1ccccc1/C=C/c1ccnc2ccccc12
IC50 (Protein skinhead-1): 67.2 µM (inactive)

CCOC(=O)Nc1cccc2c1-c1ccc([N+](=O)[O-])cc1C2=O
IC50 (Protein skinhead-1): > 100 µM (inactive)

Cc1nc2c(C(=O)NCCC(C)C)cnn2c(O)c1Cc1ccccc1F
EC50 [9]: 4.22 µM (active) | EC50 [10]: > 150 µM (inactive)

CC/C(C)=N/Nc1cccc([N+](=O)[O-])c1
EC50 [9]: > 38 µM (not active) | EC50 [10]: 19.8 µM (active)
